{"source": "paper PMC3789174", "about": "(Cell Death & Disease, 2013)", "test_system": "PBMCs from CLL patients", "test": "Peptide-induced cell death, PI staining and FACS", "type": "cell-based, human", "conditions": "relatively high concentrations; data not shown", "data": [{"smiles": "Nc1nc(F)nc2c1ncn2[C@@H]1O[C@H](CO)[C@@H](O)[C@@H]1O", "note": "[fludarabine]", "values": [{"measurement": "cell killing effect on PBMCs isolated from CLL patients", "value": "only a weak cell killing effect"}]}]}
